Patent publication US8785452B2, “Anti-infective compounds” (priority 2008, dated 2014)
Read-outs that look alike come from different tables or passages of the source.

Columns and labels:
[1] = test system: M. tuberculosis H37Rv-GFP; test: microbe, parasite or virus in culture; format: cell-based, Mycobacterium tuberculosis; details: Mycobacterium tuberculosis, H37RV, Macrophage
[2] = test system: Raw264.7 cells; details: mouse
[3] = test system: Raw264.7 cells; test: Cell number (CellNb) from image analysis of the phenotypic cell-based assay
[4] = confirmation, 20 uM, read-out: QIM Confirm % Inhibition 20 uM
[5] = primary screen, 20 μM, read-out: Primary QIM % Inhibition

Compound	inhibition at 20 µM [1, 4]	inhibition at 20 µM [1, 5]	Primary QIM CellNb ([2]; 5 days, 20 μM)	Primary QIM CellNb ([3]; primary screen, 20 μM)	also measured
Cc1ccc(NC(=O)c2c(NC(=O)c3ccccc3Cl)sc3c2CCC3)cc1 [IPK 000 073 69]	32.3%	87%	14.0	246.5	–
Cc1cccc(NC(=O)c2c(NC(=O)c3ccccc3Cl)sc3c2CCC3)c1 [IPK 000 073 70]	103%	88.6%	56.7	234.0	–
Cc1ccccc1NC(=O)c1c(NC(=O)c2ccccc2Cl)sc2c1CCC2 [IPK 000 073 71]	65.2%	87.5%	29.8	218.3	QIM Confirm CellNb 0.2 uM ([2]; 5 days, 0.2 uM): 45.3
Cc1ccc(NC(=O)c2c(NC(=O)C(F)(F)F)sc3c2CCC3)c(C)c1 [IPK 000 077 22]	46.6%	-33%	33.3	84.5	–
COc1c(O)cc(/C=N/NC(=O)c2ccncc2)cc1Br [IPK 000 078 30]	105%	108%	97.0	388.3	–
COc1cc(/C=N/NC(=O)c2ccncc2)cc(Br)c1OC [IPK 000 078 53]	107%	84%	95.6	386.0	–
CC/C(Cc1ccccc1)=N\NC(=O)c1ccncc1 [IPK 000 078 86]	108%	96.9%	88.3	462.0	–
Cc1nn(C)cc1/C=N/NC(=O)c1ccncc1 [IPK 000 079 13]	102%	69.6%	97.8	294.0	–
COc1cc(Br)cc(/C=N/NC(=O)c2ccncc2)c1O [IPK 000 079 15]	97.9%	82.4%	90.5	383.3	–
O=S(=O)(Nc1nccs1)c1ccc(/N=C/c2ccccc2O)cc1 [IPK 000 079 88]	28.1%	-69.2%	7.5	181.8	–
CCOc1nnc(NS(=O)(=O)c2ccc(/N=C/c3ccccc3O)cc2)s1 [IPK 000 080 01]	56.6%	14.3%	27.4	409.8	–
COc1ccc(/C(C)=N/NC(N)=S)c(OC)c1 [IPK 000 080 24]	23%	0.2%	67.6	188.8	–
CCOc1ccc(/C(C)=N/NC(N)=S)cc1 [IPK 000 080 37]	–	–	–	–	inhibition at 20 µM ([1]; read-out: Primary QIM % Inhibition): -44%; inhibition at 20 µM ([1]; read-out: QIM Confirm % Inhibition 20 uM): 36%; Primary QIM CellNb [2]: 62.1; Primary QIM CellNb [3]: 110.8
C/C(=N\NC(N)=S)c1ccccc1O [IPK 000 080 38]	3.4%	21%	32.1	307.5	–
O=[N+]([O-])c1cc(Br)cc(/C=N/c2ccccc2O)c1O [IPK 000 080 69]	16.5%	-42.5%	37.6	123.5	–
O=C(N/N=C/c1cc(Br)cc([N+](=O)[O-])c1O)c1ccncc1 [IPK 000 080 81]	99.5%	94.7%	104.9	363.3	–
CCOC(=O)C1=C(C)NC2=C(C(=O)CC(c3ccccc3)C2)C1c1cccc(O)c1 (stereo not shown) [IPK 000 083 89]	59.1%	73.5%	19.5	38.8	–

Compound	inhibition at 20 µM [1, 4]	inhibition at 20 µM [1, 5]	Primary QIM CellNb ([2]; 5 days, 20 μM)	Primary QIM CellNb ([3]; primary screen, 20 μM)	also measured
CCCOC(=O)C1=C(C)NC2=C(C(=O)CC(c3ccccc3)C2)C1c1cccc(O)c1 (stereo not shown) [IPK 000 085 99]	49.5%	37.1%	4.5	67.3	–
C=C(N/N=C/c1cccc(C)n1)c1nn(Cc2ccc(Br)cc2)cc1Br [IPK 000 091 17]	75.7%	75.6%	35.4	191.5	–
O=C(N/N=C/c1ccc([N+](=O)[O-])s1)C1CCN(Cc2ccc(Br)cc2)CC1 [IPK 000 091 49]	95.1%	90.5%	9.3	110.5	–
N=C1S/C(=C/c2ccc([N+](=O)[O-])cc2)C(=O)N1c1nccs1 [IPK 000 094 38]	6%	46%	13.6	126.3	–
CC(Oc1cccc2ccccc12)C(=O)NNC(=O)c1cc2ccccc2oc1=O (stereo not shown) [IPK 000 095 07]	75.8%	70.9%	8.0	388.3	–
O=C(N/N=C\c1cc2c(s1)CCCCC2)c1ccncc1 [IPK 000 102 07]	84.7%	94.7%	99.5	116.0	QIM Confirm CellNb 20 uM ([2]; 5 days, 20 uM): 79.6; QIM Confirm CellNb 20 uM ([3]; confirmation, 20 uM): 124.8
CN1C/C(=C\c2ccccc2Br)C(=O)/C(=C/c2ccccc2Br)C1 [IPK 000 102 36]	66.5%	65.6%	4.4	193.3	–
CCN1C/C(=C\c2ccc3c(c2)OCO3)C(=O)/C(=C/c2ccc3c(c2)OCO3)C1 [IPK 000 102 52]	68.1%	70.4%	−7.0	179.8	–
O=C(COc1ccccc1-c1ccccc1)N/N=C\c1ccc([N+](=O)[O-])s1 [IPK 000 103 28]	71.3%	71.1%	49.5	134.3	–
CCN(CC)c1ccc(/C=N/NC(=O)c2cccs2)c(O)c1 [IPK 000 103 76]	74.5%	85.7%	−1.7	47.8	–
O=C(N/N=C1\C(=O)N(Cc2cccc3ccccc23)c2ccccc21)c1cc(-c2ccccc2)n[nH]1 [IPK 000 103 78]	98%	94.6%	3.5	263.5	–
C/C(=N\NC(=O)c1cccc(F)c1)c1ccc2ccccc2c1 [IPK 000 104 07]	80.2%	82.3%	65.1	243.5	–
Cn1cc(/C=N/NC(=O)c2cccc(F)c2)c2ccccc21 [IPK 000 104 11]	83.3%	89.7%	19.9	203.8	–
CC(/C=N/NC(=O)c1cccc(F)c1)c1ccccc1 (stereo not shown) [IPK 000 104 13]	89.6%	68.8%	25.2	115.8	–
COc1cc(Cl)cc(/C=N/NC(=O)c2ccccc2O)c1O [IPK 000 104 20]	34.6%	65.2%	−2.9	29.5	–
O=C(O)COc1ccccc1/C=N/NC(=O)c1ccncc1 [IPK 000 105 19]	106%	98.7%	104.1	374.3	QIM Confirm CellNb 2 uM ([3]; confirmation, 2 uM): 566.4
